How the values were obtained:
panel of 442 kinases [1] = biological target: T1, panel of 442 kinases (Homo sapiens, UniProt Q02156); assay type: binding; details: Compound Concentration 10 µM
T1 construct: purchased KINOMEscan
T1 sequence (Q02156 1-737): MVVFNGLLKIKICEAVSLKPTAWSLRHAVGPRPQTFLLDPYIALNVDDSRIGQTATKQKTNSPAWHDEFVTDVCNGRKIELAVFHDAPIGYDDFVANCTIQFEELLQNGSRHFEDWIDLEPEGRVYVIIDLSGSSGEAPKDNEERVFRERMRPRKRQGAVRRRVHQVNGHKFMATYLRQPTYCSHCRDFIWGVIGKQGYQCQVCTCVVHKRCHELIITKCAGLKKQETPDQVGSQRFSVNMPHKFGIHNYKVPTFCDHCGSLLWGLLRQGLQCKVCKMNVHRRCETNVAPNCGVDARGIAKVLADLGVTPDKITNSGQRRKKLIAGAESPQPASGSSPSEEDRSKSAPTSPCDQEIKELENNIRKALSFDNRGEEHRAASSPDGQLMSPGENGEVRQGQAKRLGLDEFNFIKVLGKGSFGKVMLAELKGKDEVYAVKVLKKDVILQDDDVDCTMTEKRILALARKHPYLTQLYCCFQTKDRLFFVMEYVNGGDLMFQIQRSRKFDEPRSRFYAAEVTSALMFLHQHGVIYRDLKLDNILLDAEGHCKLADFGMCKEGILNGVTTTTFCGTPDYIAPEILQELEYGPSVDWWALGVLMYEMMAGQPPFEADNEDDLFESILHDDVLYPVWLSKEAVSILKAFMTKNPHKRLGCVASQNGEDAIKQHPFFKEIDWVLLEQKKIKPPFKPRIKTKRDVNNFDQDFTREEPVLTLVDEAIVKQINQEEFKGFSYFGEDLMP
Excerpt: (§1) We assessed the selectivity of members of this scaffold using the KINOMEscan methodology across a near comprehensive panel of 442 kinases [[18,27]].

panel of 442 kinases [2] = biological target: T2, panel of 442 kinases (Homo sapiens, UniProt Q16566); assay type: binding; details: Compound Concentration 10 µM
T2 construct: purchased KINOMEscan
T2 sequence (Q16566 1-473): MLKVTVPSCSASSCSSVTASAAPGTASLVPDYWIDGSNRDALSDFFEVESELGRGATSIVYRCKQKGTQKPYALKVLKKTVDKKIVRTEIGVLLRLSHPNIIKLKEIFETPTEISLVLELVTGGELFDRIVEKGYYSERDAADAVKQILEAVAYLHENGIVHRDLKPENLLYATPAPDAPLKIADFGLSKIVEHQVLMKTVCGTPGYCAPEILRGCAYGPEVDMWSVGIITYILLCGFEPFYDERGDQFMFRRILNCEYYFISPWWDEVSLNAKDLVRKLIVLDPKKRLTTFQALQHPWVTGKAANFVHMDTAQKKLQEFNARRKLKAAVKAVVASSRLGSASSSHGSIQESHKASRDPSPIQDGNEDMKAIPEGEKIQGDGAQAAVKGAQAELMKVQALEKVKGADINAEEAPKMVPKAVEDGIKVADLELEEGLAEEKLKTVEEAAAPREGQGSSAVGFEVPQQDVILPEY
Excerpt: as §1

Row | SMILES | KINOMEscan: PRKCE (panel of 442 kinases [1]) | KINOMEscan: CAMK4 (panel of 442 kinases [2])
1 | COc1cc(C(=O)N2CCC(N3CCN(C)CC3)CC2)ccc1Nc1ncc2c(n1)N(C)c1ccccc1C(=O)N2C [15 (LRRK2-IN-1)] | 100 | 79
2 | COc1cc(C(=O)N2CCC(N3CCN(C)CC3)CC2)ccc1Nc1ncc2c(n1)N1CCc3cccc(c31)C(=O)N2C [Compound 24] | 72 | –
3 | COc1cc(C(=O)N2CCC(N3CCN(C)CC3)CC2)ccc1Nc1ncc2c(n1)N(C1CCCC1)c1ccccc1C(=O)N2C [Compound 25, 11-cyclopentyl-2-((2-methoxy-4-(4-(4-methylpiperazin-1-yl)piperidine-1-carbonyl)phenyl)amino)-5-methyl-5H-benzo[e]pyrimido[5,4-b][1,4]diazepin-6(11H)-one] | 79 | 82
4 | CCOc1cc(C(=O)N2CCC(N3CCN(C)CC3)CC2)ccc1Nc1ncc2c(n1)N(C1CCCC1)c1ccccc1C(=O)N2C [Compound 26] | 98 | 100

Source: article PMC3914206
